Among the data in patent publication US9963446B2, “Oxepan-2-yl-pyrazol-4-yl-heterocyclyl-carboxamide compounds and methods of use” (Genentech, Inc., priority 2014, dated 2018) are Ki, IC50 and EC50 values, retold here.

The term Ki denotes the dissociation constant of the complex between target and ligand, obtained from inhibition or displacement. Low values mean higher affinity, high ones lower affinity. Broadly, the IC50 is the point on the concentration scale where inhibition reaches its midpoint. The term EC50 denotes the concentration needed to bring the measured effect to its halfway point.

Molecules are shown by their SMILES.

In one experiment the target is PIM1 (Homo sapiens (Human), UniProt P11309). Description: Pim kinase binding activity (PIM1 LC3K Ki). It counts as biochemical. Particulars: 20 pM PIM1, 10 μM ATP, 90 minutes. As to the method: PIM-1, -2, and -3 enzymes were generated as fusion proteins expressed in bacteria and purified by IMAC column chromatography (Sun, X., Chiu, J. F., and He, Q. Y. (2005) Expert Rev. Proteomics, 2:649-657). A fluorescent-labeled Pim-specific peptide substrate, was custom synthesized by American Peptide Company (Sunnyvale, Calif.). Reaction Buffer contained 10 mM HEPES, pH 7.2, 10 mM MgCl2, 0.01% Tween 20, 2 mM DTT. Termination Buffer contained 190 mM HEPES, pH 7.2, 0.015% Brij-35, 0.2% Coating Reagent 3 (Caliper Life Sciences, Hopkinton, Mass.), 20 mM EDTA. Separation Buffer contained 100 mM HEPES, pH 7.2, 0.015% Brij-35, 0.1% Coating Reagent 3, 1:200 Coating Reagent 8 (Caliper Life Sciences, Hopkinton, Mass.), 10 mM EDTA and 5% DMSO.
PIM reactions were carried out in a final volume of 10 μL per well in a 384-well plate. A standard enzymatic reaction, initiated by the addition of 5 μL 2×ATP and test compound to 5 μL of 2× enzyme and FAM-peptide, contained 20 pM PIM1, 50 pM PIM2, or 55 pM PIM3, 1 μM FAM-peptide, and 10 μM ATP, in Reaction Buffer. After 90 minutes of incubation at room temperature, the phosphorylation reaction was stopped by the addition of 10 μL Termination Buffer. The product and substrate in each independent reaction were separated on a 12-sipper microfluidic chip (Caliper Life Sciences, Hopkinton, Mass.) run on a Caliper LC3000® (Caliper Life Sciences, Hopkinton, Mass.). The separation of product and substrate was optimized by choosing voltages and pressure using Caliper's Optimizer software (Hopkinton, Mass.). The separation conditions used a downstream voltage of −500V, an upstream voltage of −2150V, and a screening pressure of −1.2 psi. The product and substrate fluorophore were excited at 488 nm and detected at 530 nm. Substrate conversion was calculated from the electropherogram using HTS Well Analyzer software (Caliper Life Sciences, Hopkinton, Mass.). Ki values for the test compound were calculated. See Table 1 for representative PIM1 LC3K Ki in micromolar values of exemplary compounds.

In the next experiment the test system is BaF3 PIM1 cells. Put plainly: In vitro cell proliferation, BaF3 transfected with PIM1. It counts as cell-based, murine. The settings on record: Mus musculus; BaF3 PIM1 line, incubated overnight; read-out: Prolif BaF3 PIM1 (IC50). As to the method: (§1) BaF3 parental line was obtained from the DSMZ repository. BaF3 lines transfected with PIM1 or PIM2 were generated. Mouse IL-3 was purchased from R&D Systems. G418 was purchased from Clontech. Media for BaF3 parental line contained RPMI, 10% FBS, 2 mM L-Glutamine, 2 ng/mL mIL-3. Media for BaF3 PIM1 & 2 lines contained RPMI, 10% FBS, 2 mM L-Glutamine, […]. Media for MM1.S (multiple myeloma cells) line contained RPMI, 10% FBS, 2 mM L-Glutamine.
(§2) BaF3, a murine interleukin-3 dependent pro-B cell line, parental cells, BaF3 PIM1 cells, BaF3 PIM2 cells, and MM1.S (multiple myeloma) cells were seeded at 2 k/well, 5 k/well, 5 k/well, and 10 k/well respectively, in a 384-well plate, at 45 μL/well. Test compound was added at 5 μL/well. BaF3 cells (parental and transfected) were incubated overnight, while MM1.S cells were incubated for 72 hours at 37° C., 5% CO2. CELL TITER GLO® Reagent (Promega) was added at 50 μL/well, the plates were incubated for 30 minutes, and their luminescence read on an HT Analyst. IC50/EC50 values for the test compound were calculated.

The next experiment deals with BaF3 parental cells. Description: In vitro cell proliferation, BaF3 parental line + IL3. It counts as cell-based, murine. The settings on record: Mus musculus; BaF3 parental line with mIL-3, incubated overnight; read-out: Prolif BaF3 + IL3 (IC50). The procedure:
as §1, §2

Experiment [1] deals with MM1.S (multiple myeloma) cells. Description: In vitro cell proliferation, MM1.S (CELL TITER GLO). It counts as cell-based. The settings on record: Homo sapiens, 72 hours, read-out: Prolif MM1S ATP (EC50). As to the method: as §1, §2
On the technique in general: In ATP-based viability assays light output follows the ATP content of the culture.

Chain of PIM1 (P11309 whole entry, the tested form may be a part): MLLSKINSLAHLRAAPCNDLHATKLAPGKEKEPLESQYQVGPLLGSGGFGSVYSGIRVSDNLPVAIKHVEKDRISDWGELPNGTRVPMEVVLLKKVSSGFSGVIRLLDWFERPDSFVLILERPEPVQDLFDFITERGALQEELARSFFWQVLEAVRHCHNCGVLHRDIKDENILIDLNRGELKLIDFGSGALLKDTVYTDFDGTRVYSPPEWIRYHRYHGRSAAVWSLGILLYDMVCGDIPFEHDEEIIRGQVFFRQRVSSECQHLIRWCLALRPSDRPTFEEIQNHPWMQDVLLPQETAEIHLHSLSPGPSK

At PIM1, `Cn1ncc(NC(=O)c2csc(-c3cc4[nH]ncc4cc3F)n2)c1[C@@H]1CC[C@@H](N)[C@H](F)CO1` [Example 109, N-[5-[(2S,5R,6S)-5-amino-6-fluoro-oxepan-2-yl]-1-methyl-pyrazol-4-yl]-2-(5-fluoro-1H-indazol-6-yl)thiazole-4-carboxamide] showed a Ki of 0.019 nM. Also, the IC50 was 39.4 nM in the experiment with BaF3 PIM1 cells and 3100 nM in the experiment with BaF3 parental cells. The EC50 in experiment [1] stood at 287 nM.
In turn, `Cc1cnc(-c2nc(C(=O)Nc3cnn(C)c3[C@@H]3CC[C@@H](N)[C@H](F)CO3)cs2)cn1` [Example 110, N-[5-[(2S,5R,6S)-5-amino-6-fluoro-oxepan-2-yl]-1-methyl-pyrazol-4-yl]-2-(5-methylpyrazin-2-yl)thiazole-4-carboxamide] registered a Ki at PIM1 of 0.018 nM. For the same molecule, the IC50 in the experiment with BaF3 PIM1 cells came out at 63.8 nM; in the experiment with BaF3 parental cells, 9200 nM. In addition, in experiment [1], the EC50 worked out at 148 nM.
For `Cn1ncc(NC(=O)c2csc(-c3c(F)cc4c(c3F)OCC[C@H]4O)n2)c1[C@@H]1CC[C@@H](N)[C@H](F)CO1` [Example 112, N-(5-((2S,5R,6S)-5-amino-6-fluorooxepan-2-yl)-1-methyl-1H-pyrazol-4-yl)-2-((R)-6,8-difluoro-4-hydroxychroman-7-yl)thiazole-4-carboxamide], the affinity on PIM1, expressed as Ki, was 0.004 nM. The IC50 was 118 nM in the experiment with BaF3 PIM1 cells and greater than 25000 nM in the experiment on BaF3 parental cells. Moreover, the EC50 in experiment [1] is 202 nM.
As for `Cn1ncc(NC(=O)c2csc(-c3n[nH]c4c3CCC4)n2)c1[C@@H]1CC[C@@H](N)[C@H](F)CO1` [Example 113, N-[5-[(2S,5R,6S)-5-amino-6-fluoro-oxepan-2-yl]-1-methyl-pyrazol-4-yl]-2-(1,4,5,6-tetrahydrocyclopenta[c]pyrazol-3-yl)thiazole-4-carboxamide], the affinity on PIM1 corresponds to a Ki of 0.03 nM. Besides, the IC50 with BaF3 PIM1 cells was 327 nM; with BaF3 parental cells, 13600 nM. Moreover, the EC50 in experiment [1] worked out at 906 nM.
As for `N[C@H]1CC[C@H](c2c(NC(=O)c3ccc(F)c(-c4c(F)cccc4F)n3)cnn2C2CC2)OC[C@@H]1F` [Example 114, N-[5-[(2R,5S,6R)-5-amino-6-fluoro-oxepan-2-yl]-1-cyclopropyl-pyrazol-4-yl]-6-(2,6-difluorophenyl)-5-fluoro-pyridine-2-carboxamide], the Ki on PIM1 turned out to be 0.173 nM. Also, the IC50 in the experiment with BaF3 PIM1 cells was found to be 75.1 nM; with BaF3 parental cells it was 10100 nM. Moreover, the EC50 in experiment [1] worked out at 443 nM.
On PIM1, `CO[C@H]1[C@H](N)CC[C@@H](c2c(NC(=O)c3csc(-c4c(F)cccc4F)n3)cnn2C)O[C@H]1C` [Example 117, N-[5-[(2S,5R,6S,7S)-5-amino-6-methoxy-7-methyl-oxepan-2-yl]-1-methyl-pyrazol-4-yl]-2-(2,6-difluorophenyl)thiazole-4-carboxamide] had a Ki of 0.0325 nM. In addition, the results for the IC50 with BaF3 PIM1 cells and with BaF3 parental cells were 14 nM and 6900 nM, respectively. Besides, in experiment [1], the EC50 came to 53.9 nM.
For `CO[C@H]1[C@H](N)CC[C@@H](c2c(NC(=O)c3csc(-c4c(F)cccc4F)n3)cnn2C)O[C@@H]1C` [Example 118, N-(5-((2S,5R,6S,7R)-5-amino-6-methoxy-7-methyloxepan-2-yl)-1-methyl-1H-pyrazol-4-yl)-2-(2,6-difluorophenyl)thiazole-4-carboxamide] the same measures were 0.006 nM, 8.95 nM, 2500 nM and 67.3 nM.
In the same order, the values of `COc1cnc(-c2nc(C(=O)Nc3cnn(C)c3[C@@H]3CC[C@@H](N)[C@H](F)CO3)cs2)c(C)c1` [Example 119, N-[5-[(2S,5R,6S)-5-amino-6-fluoro-oxepan-2-yl]-1-methyl-pyrazol-4-yl]-2-(5-methoxy-3-methyl-2-pyridyl)thiazole-4-carboxamide] are 0.043 nM, 49.2 nM, 2900 nM and 407 nM.
In the same order, the values of `Cn1ncc(NC(=O)c2csc(-c3cccc4cccnc34)n2)c1[C@@H]1CC[C@@H](N)[C@H](F)CO1` [Example 120, N-[5-[(2S,5R,6S)-5-amino-6-fluoro-oxepan-2-yl]-1-methyl-pyrazol-4-yl]-2-(8-quinolyl)thiazole-4-carboxamide] are 1.79 nM, 563 nM, 2300 nM and 228 nM.
`C[C@@H]1O[C@H](c2c(NC(=O)c3csc(-c4c(F)cccc4F)n3)cnn2C)CC[C@@H](N)[C@H]1F` [Example 121, N-(5-((2S,5R,6R,7S)-5-amino-6-fluoro-7-methyloxepan-2-yl)-1-methyl-1H-pyrazol-4-yl)-2-(2,6-difluorophenyl)thiazole-4-carboxamide]: the Ki on PIM1 stood at 0.0049 nM. Further, the IC50 amounted to 12.2 nM in the experiment on BaF3 PIM1 cells and 14200 nM in the experiment on BaF3 parental cells. Also, in experiment [1], the EC50 came to 376 nM.
`Cn1ncc(NC(=O)c2csc(-c3cn4ccnc4cn3)n2)c1[C@@H]1CC[C@@H](N)[C@H](F)CO1` [Example 122, N-(5-((2S,5R,6S)-5-amino-6-fluorooxepan-2-yl)-1-methyl-1H-pyrazol-4-yl)-2-(imidazo[1,2-a]pyrazin-6-yl)thiazole-4-carboxamide] returned a Ki on PIM1 of 0.025 nM. Further, the IC50 was 184 nM in the experiment with BaF3 PIM1 cells and 12500 nM with BaF3 parental cells. Moreover, in experiment [1], the EC50 was determined as 600 nM.
